In patent publication US10940139B2, “Compounds that interact with the Ras superfamily for the treatment of cancers, inflammatory diseases, rasopathies, and fibrotic disease” (Shy Therapeutics LLC, priority 2017, dated 2021):

Tested on: MIA-PACA2 pancreatic cancer cell lines
Assay: Cell proliferation assay (CellTiter 96 AQueous One)
Assay type: cell-based
Settings: Homo sapiens, MIA PaCa-2; at 30 μM, MIA-PACA2

| SMILES | inhibition at 30 µM [%] |
| --- | --- |
| O=S1(=O)CCN(Cc2cccc(-c3csc4c(O)nc(-c5ccccn5)nc34)c2)CC1 [drawing 1740] | 76 to 100 |
| Oc1nc(-c2ccccn2)nc2c(-c3ccc(C4CCC4)cc3)csc12 [drawing 1741] | 76 to 100 |
| Oc1nc(-c2ccccn2)nc2c(-c3ccccc3OC3CCCCC3)csc12 [drawing 1742] | 76 to 100 |
| Oc1nc(-c2ccccn2)nc2c(-c3ccc(OC4CCOCC4)cc3)csc12 [drawing 1743] | 76 to 100 |
| Oc1nc(-c2ccccn2)nc2c(-c3ccccc3F)csc12 [drawing 1744] | 76 to 100 |
| COc1cc(C)c(-c2csc3c(O)nc(-c4ccccn4)nc23)cc1C [drawing 1745] | 76 to 100 |
| COc1ccccc1-c1csc2c(O)nc(-c3ccccn3)nc12 [drawing 1746] | 76 to 100 |
| Oc1nc(-c2ccccn2)nc2c(-c3ccc(F)cc3F)csc12 [drawing 1747] | 76 to 100 |
| COc1cccc(-c2csc3c(O)nc(-c4ccccn4)nc23)c1 [drawing 1748] | 76 to 100 |
| COc1ccc(F)cc1-c1csc2c(O)nc(-c3ccccn3)nc12 [drawing 1750] | 76 to 100 |
| Oc1nc(-c2ccccn2)nc2c(-c3ccsc3)csc12 [drawing 1751] | 76 to 100 |
| Oc1nc(-c2ccccn2)nc2c(-c3ccc(OC(F)F)cc3F)csc12 [drawing 1752] | 76 to 100 |
| Cc1cc(OC(F)F)ccc1-c1csc2c(O)nc(-c3ccccn3)nc12 [drawing 1754] | 76 to 100 |
| Oc1nc(-c2ccccn2)nc2c(-c3ccc4c(c3)OCO4)csc12 [drawing 1755] | 76 to 100 |
| CC(C)(O)c1ccc(-c2csc3c(O)nc(-c4ccccn4)nc23)c(F)c1 [drawing 1756] | 76 to 100 |
| COc1ccc(-c2csc3c(O)nc(-c4ccccn4)nc23)c(C)c1 [drawing 1757] | 76 to 100 |
| Oc1nc(-c2ccccn2)nc2c(-c3ccc(CN4CCOCC4)cc3)csc12 [drawing 1758] | 76 to 100 |

| SMILES | inhibition at 30 µM [%] |
| --- | --- |
| Oc1nc(-c2ccccn2)nc2c(-c3ccccc3C(F)F)csc12 [drawing 1759] | 76 to 100 |
| COc1cc(-c2csc3c(O)nc(-c4ccccn4)nc23)cnc1C(F)(F)F [drawing 1760] | 76 to 100 |
| CNC(=O)c1ccc(-c2csc3c(O)nc(-c4ccccn4)nc23)cc1C [drawing 1761] | 76 to 100 |
| OCC1(c2ccc(-c3csc4c(O)nc(-c5ccccn5)nc34)cc2)CC1 [drawing 1762] | 76 to 100 |
| Oc1nc(-c2ccccn2)nc2c(-c3ccc(OC4CCCCC4)cc3)csc12 [drawing 1763] | 76 to 100 |
| Cc1cnccc1-c1csc2c(O)nc(-c3ccccn3)nc12 [drawing 1764] | 76 to 100 |
| O=C(CCc1nn[nH]n1)Nc1nc(-c2ccccn2)nc2sccc12 [drawing 1766] | 51 to 75 |
| O=C(CCc1cncnc1)Nc1nc(-c2ccccn2)nc2sccc12 [drawing 1767] | 76 to 100 |
| Nc1nc(-c2ccccn2)nc2c(Br)csc12 [drawing 1768] | 25 to 50 |
| Cc1sc2c(N)nc(-c3ccccn3)nc2c1Br [drawing 1769] | 76 to 100 |
| Nc1nc(-c2ccccn2)nc2scc(Br)c12 [drawing 1770] | 1 to 25 |
| COC(=O)c1csc2nc(-c3ccccn3)nc(N)c12 [drawing 1771] | 76 to 100 |
| COc1nccc(CCNC(=O)c2csc3nc(-c4ccccn4)nc(N4CCOCC4)c23)n1 [drawing 1773] | 76 to 100 |
| O=C(NCCc1ccnc(O)n1)c1csc2nc(-c3ccccn3)nc(N3CCOCC3)c12 [drawing 1774] | 1 to 25 |
| CN1CCN(c2nc(-c3ccccn3)nc3scc(C(=O)NCCc4cnc(O)nc4)c23)CC1 [drawing 1775] | 25 to 50 |
| Oc1nc(-c2ccccn2)nc2c(-c3cc(F)cc(F)c3)csc12 [drawing 1776] | 76 to 100 |
| CN(C)Cc1ccc(F)c(-c2csc3c(O)nc(-c4ccccn4)nc23)c1 [drawing 1777] | 76 to 100 |
